Source: patent US6465631B1, “Lipid a 4′ kinase” (Duke University, priority 1997, dated 2002)

Target: T1, lipid A 4′ kinase (Escherichia coli, UniProt P27300)
T1 construct: The first primer introduces a Nde I site at the start codon of orfE, and the second primer introduces a BamHl site downstream of the stop codon; made in house; host or cells: E. coli BLR(DE3)pLysS/pJK2 (pET3a, T7 promoter); Controls with chromosomal kinase only: BR7 membranes and BLR(DE3)pLysS/pET3a fractions
Test: 4′ kinase assay method II ([γ-32P]ATP donor, lipid acceptor, TLC)
Format: biochemical, E. coli
Conditions: for utilisation as substrate of the 4′ kinase (in words): recombinant, overexpressed 4′ kinase (BLR(DE3)pLysS/pJK2 membranes); for 32P from input [γ-32P]-ATP incorporated into 4′-phosphorylated product (yield): 0.6 μM [γ-32P]ATP, 100 μM lipid acceptor, 10 min, 30° C.
Description: FIG. 12: Effective phosphorylation of DS-1-P and DS-1-P analogs with recombinant, overproduced 4′ kinase. Washed membranes from strain BR7 and BLR(DE3)pLysS/pJK2 were used, as indicated, in 4′ kinase assays containing 100 μM of the indicated DS-1-P analog, 0.6 μM [γ-^32P] ATP, 50 mM Tris, pH 8.5, 5 mM MgCl2, 1% NP-40, 1 mg/ml cardiolipin and 0.5 mg/ml washed membranes. After a 10 minute incubation at 30° C., 5 μl of the reaction was spotted onto a Silica Gel 60 TLC plate and developed in chloroform:pyridine:formic acid:water (30:70:16:10 v/v). The plate was dried, exposed to a PhosphorImager screen and visualized using ImageQuant software. Arrows indicate the products of the reactions. If the native substrate DS-1-P is present in the reaction, [4′-^32P]-lipid IVA is formed. When 3-aza-DS-1-P, base-treated DS-1-P, or base-treated 3-aza-DS-1-P are present, 4′ phosphorylated products a, b and c are formed, respectively. The migration of each of these products is slower than the non-phosphorylated substrate analog, consistent with the phosphate incorporation. As in FIG. 9, BLR/pJK2 is an abbreviation for BLR(DE3)pLysS/pJK2, and NE indicates the no enzyme control. […] Minor ^32P containing lipids generated by membranes of BLR(DE3)pLysS/pJK2 in the absence of any acceptor substrate arise by the action of diglyceride kinase on endogenous glycerophospholipids (see especially Lane 6). The diglyceride kinase is inactivated by mutation in strain BR7 (Hampton et al, Methods in Enzymology 209:466 (1992)).
Assays for 4′ kinase activity. Two methods for analyzing 4′ kinase activity of various protein fractions were employed. The first (method I) utilizes DS-1-^32P as the labeled substrate. Typically, 100 μM DS-1-^32P (1000 cpm/nmol), 1 mg/ml cardiolipin, 50 mM Tris, pH 8.5, 5 mM ATP, 1% NP-40, and 5 mM MgCl2 are mixed with 0.5-500 μg/ml protein fraction and incubated at 30° C. for various times. Reactions were stopped by spotting a portion of the reaction onto a Silica Gel 60 thin layer chromatography plate. Plates were developed in chloroform:methanol:water:acetic acid (25:15:4:2, v/v) and analyzed as described above. Method II (which is not intended for the quantitative determination of specific activities) utilizes [γ-^32P] ATP (˜8×10^6 cpm/nmol) as the labeled substrate. The reaction conditions are exactly the same as for method I except that the ATP concentration is lowered to 0.6 μM and only non-radioactive DS-1-P (final concentration of 100 μM) is added. The reactions were stopped as described above, and plates were developed in chloroform:pyridine:formic acid:water (30:70:16:10, v/v).
Each lipid analog was tested as a 4′ kinase substrate using recombinant, overexpressed 4′ kinase in conjunction with the method II assay conditions (0.6 μM [γ-^32P]-ATP as the phosphate donor and 100 μM lipid acceptor). DS-1-P becomes phosphorylated to form [4′-^32P]-lipid IVA by BR7 membranes (containing wild-type kinase levels), but only with a yield of ˜0.5% (FIG. 11, lane 2). When BLR(DE3)pLysS/pJK2 membranes are used (FIG. 12, lane 7) more than 50% of the ^32P is incorporated into [4′-^32P]-lipid IVA. […] Products (b) and (c) are formed from base-treated DS-1-P and base treated 3-aza-DS-1-P, respectively.

T1 sequence (P27300 whole entry): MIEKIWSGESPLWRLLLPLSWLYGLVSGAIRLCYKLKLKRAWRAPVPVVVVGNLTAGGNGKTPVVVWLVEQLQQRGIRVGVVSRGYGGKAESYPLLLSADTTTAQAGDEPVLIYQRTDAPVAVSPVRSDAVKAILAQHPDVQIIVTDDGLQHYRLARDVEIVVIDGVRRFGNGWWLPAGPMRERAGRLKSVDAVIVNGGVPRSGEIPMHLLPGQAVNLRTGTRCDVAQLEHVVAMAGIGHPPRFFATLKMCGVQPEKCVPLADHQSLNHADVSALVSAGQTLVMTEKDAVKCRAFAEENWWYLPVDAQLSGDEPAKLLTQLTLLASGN

Row | Compound | utilisation as substrate of the 4′ kinase (in words) | 32P from input [γ-32P]-ATP incorporated into 4′-phosphorylated product (yield) (BLR(DE3)pLysS/pJK2 membranes (recombinant, overexpressed 4′ kinase)) | 32P from input [γ-32P]-ATP incorporated into 4′-phosphorylated product (yield) (BR7 membranes (wild-type kinase levels)) [%]
1 | 2,3-diacyl-glucosamine-1-phosphate [Lipid X] | not substrates | – | –
2 | CCCCCCCCCCC[C@@H](O)CC(=O)N[C@H]1[C@H](OC[C@H]2O[C@H](OP(=O)(O)O)[C@H](NC(=O)C[C@H](O)CCCCCCCCCCC)[C@@H](OC(=O)C[C@H](O)CCCCCCCCCCC)[C@@H]2O)O[C@H](CO)[C@@H](O)[C@@H]1OC(=O)C[C@H](O)CCCCCCCCCCC [DS-1-P, tetraacyldisaccharide-1-phosphate] | large amount | more than 50% | ~0.5
3 | UDP-2,3-diacyl-glucosamine [UDP-diacylglucosamine] | not substrates | – | –
